Tests used:
Thromboxane A2 receptor = target: T1, Thromboxane A2 receptor (Homo sapiens, UniProt P21731)
T1 sequence (P21731 whole entry): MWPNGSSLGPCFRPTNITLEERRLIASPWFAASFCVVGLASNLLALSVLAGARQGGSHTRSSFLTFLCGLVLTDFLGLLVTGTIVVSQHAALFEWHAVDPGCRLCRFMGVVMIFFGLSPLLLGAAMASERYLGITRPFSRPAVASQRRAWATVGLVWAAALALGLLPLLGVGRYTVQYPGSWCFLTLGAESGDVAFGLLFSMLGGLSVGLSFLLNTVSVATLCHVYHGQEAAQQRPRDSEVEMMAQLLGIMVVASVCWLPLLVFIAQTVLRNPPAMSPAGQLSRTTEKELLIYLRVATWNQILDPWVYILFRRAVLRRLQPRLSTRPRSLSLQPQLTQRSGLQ

Adenosine receptor A3 = target: T2, Adenosine receptor A3 (Homo sapiens, UniProt P0DMS8)
T2 sequence (P0DMS8 whole entry): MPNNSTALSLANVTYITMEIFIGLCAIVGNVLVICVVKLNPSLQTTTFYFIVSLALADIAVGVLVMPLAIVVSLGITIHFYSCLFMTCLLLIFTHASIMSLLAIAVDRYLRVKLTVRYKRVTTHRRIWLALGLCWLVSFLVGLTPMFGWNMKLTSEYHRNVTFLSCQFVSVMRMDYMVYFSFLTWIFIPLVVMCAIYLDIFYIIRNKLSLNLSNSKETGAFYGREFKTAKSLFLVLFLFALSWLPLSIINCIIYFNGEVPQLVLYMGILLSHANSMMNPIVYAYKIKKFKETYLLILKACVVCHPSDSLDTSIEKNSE

Adenosine receptor A1 = target: T3, Adenosine receptor A1 (Homo sapiens, UniProt P30542)
T3 sequence (P30542 whole entry): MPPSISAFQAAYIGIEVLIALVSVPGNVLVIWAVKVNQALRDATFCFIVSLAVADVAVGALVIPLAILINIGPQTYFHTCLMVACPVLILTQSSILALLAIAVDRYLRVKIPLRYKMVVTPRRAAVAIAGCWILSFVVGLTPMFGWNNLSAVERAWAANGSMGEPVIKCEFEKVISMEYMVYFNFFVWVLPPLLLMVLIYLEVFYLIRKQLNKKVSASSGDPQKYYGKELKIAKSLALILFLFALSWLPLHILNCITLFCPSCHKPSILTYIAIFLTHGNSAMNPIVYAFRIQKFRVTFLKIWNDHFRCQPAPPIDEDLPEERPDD

[1] = target: T4, Cholecystokinin receptor type A (Homo sapiens, UniProt P32238)
T4 sequence (P32238 whole entry): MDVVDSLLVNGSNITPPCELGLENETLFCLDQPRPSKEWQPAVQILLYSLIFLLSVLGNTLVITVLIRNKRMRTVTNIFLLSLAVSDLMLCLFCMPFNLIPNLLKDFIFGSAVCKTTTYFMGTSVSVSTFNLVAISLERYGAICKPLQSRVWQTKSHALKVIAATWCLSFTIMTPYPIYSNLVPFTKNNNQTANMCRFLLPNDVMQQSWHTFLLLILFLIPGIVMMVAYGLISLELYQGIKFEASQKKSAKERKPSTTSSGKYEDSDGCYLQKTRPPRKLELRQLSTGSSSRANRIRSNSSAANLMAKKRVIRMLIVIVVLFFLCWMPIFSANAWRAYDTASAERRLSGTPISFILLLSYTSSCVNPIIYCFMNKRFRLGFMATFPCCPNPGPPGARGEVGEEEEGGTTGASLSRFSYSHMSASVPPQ

D(3) dopamine receptor = D(3) dopamine receptor (Homo sapiens, UniProt P35462)
Sequence of D(3) dopamine receptor (P35462 whole entry): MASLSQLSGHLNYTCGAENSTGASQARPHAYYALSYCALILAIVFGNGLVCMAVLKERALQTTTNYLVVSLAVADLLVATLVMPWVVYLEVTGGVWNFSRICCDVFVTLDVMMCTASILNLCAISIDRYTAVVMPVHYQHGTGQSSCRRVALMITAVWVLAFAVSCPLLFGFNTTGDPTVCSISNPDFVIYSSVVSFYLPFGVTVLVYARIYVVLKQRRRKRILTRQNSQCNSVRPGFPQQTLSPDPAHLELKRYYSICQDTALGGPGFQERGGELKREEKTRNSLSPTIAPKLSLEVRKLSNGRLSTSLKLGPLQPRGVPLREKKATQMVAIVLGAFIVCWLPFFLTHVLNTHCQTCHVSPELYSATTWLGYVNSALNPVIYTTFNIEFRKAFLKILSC

[2] = target: Growth hormone secretagogue receptor type 1 (Homo sapiens, UniProt Q92847)
Sequence of Growth hormone secretagogue receptor type 1 (Q92847 whole entry): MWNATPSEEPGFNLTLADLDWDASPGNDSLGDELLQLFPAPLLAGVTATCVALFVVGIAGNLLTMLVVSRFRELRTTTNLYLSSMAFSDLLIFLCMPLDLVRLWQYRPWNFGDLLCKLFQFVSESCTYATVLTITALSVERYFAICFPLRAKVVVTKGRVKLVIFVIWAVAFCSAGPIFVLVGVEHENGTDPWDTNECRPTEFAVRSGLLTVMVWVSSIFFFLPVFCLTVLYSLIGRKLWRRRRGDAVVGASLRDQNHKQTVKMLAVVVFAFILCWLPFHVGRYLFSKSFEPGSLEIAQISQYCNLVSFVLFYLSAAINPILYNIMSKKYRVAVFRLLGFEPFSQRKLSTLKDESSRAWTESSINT

Histamine H2 receptor = Histamine H2 receptor (Homo sapiens, UniProt P25021); format: functional, cell-based
Sequence of Histamine H2 receptor (P25021 whole entry): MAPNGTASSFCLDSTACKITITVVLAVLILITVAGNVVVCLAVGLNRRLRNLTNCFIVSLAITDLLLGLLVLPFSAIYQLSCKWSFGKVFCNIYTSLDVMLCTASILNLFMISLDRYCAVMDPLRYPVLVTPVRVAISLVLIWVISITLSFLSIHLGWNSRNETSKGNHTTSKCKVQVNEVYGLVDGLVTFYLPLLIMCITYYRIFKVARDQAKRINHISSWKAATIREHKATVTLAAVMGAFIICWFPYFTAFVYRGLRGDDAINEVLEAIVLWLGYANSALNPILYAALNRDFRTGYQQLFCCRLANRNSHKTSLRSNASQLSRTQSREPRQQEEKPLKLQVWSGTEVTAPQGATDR

Vasopressin V2 receptor = Vasopressin V2 receptor (Homo sapiens, UniProt P30518)
Sequence of Vasopressin V2 receptor (P30518 whole entry): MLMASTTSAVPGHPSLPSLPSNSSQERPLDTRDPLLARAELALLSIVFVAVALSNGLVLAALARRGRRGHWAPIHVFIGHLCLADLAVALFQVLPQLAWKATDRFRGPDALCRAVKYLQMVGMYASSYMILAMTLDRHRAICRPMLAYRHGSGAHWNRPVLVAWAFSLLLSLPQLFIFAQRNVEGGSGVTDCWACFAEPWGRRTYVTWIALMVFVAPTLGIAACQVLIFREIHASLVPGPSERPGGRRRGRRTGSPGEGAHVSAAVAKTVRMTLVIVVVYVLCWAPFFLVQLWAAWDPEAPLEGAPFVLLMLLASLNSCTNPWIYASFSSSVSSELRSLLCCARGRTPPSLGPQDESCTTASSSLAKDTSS

[3] = target: T5, Alpha-2A adrenergic receptor (Homo sapiens, UniProt P08913); format: functional, cell-based
T5 sequence (P08913 whole entry): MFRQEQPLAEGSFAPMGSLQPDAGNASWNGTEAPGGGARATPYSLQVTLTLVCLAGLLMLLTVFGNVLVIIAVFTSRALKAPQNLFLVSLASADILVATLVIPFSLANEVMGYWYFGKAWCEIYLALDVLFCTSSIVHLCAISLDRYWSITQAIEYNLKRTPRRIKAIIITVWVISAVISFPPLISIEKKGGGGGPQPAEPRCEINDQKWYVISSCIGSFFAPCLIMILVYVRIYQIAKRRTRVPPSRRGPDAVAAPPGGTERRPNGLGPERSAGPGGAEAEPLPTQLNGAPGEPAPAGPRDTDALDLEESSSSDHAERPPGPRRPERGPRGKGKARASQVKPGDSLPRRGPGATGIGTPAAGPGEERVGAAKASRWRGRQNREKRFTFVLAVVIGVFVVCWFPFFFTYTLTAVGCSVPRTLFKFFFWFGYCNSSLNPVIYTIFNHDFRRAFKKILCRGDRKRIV

[4] = target: T6, Equilibrative nucleoside transporter 1 (Homo sapiens, UniProt Q99808)
T6 sequence (Q99808 whole entry): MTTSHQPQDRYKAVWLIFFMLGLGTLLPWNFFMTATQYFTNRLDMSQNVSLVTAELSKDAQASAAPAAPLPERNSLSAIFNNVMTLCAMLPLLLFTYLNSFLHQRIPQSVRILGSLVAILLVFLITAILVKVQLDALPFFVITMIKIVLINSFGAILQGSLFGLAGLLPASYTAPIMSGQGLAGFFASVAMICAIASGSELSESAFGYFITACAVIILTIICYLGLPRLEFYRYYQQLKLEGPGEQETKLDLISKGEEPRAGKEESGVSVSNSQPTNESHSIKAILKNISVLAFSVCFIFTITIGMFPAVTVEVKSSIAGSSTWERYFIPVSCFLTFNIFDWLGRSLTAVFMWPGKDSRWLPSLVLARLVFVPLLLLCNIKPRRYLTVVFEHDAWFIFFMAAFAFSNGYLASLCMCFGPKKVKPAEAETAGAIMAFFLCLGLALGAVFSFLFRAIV

[5] = target: Sodium-dependent noradrenaline transporter (Homo sapiens, UniProt P23975)
Sequence of Sodium-dependent noradrenaline transporter (P23975 whole entry): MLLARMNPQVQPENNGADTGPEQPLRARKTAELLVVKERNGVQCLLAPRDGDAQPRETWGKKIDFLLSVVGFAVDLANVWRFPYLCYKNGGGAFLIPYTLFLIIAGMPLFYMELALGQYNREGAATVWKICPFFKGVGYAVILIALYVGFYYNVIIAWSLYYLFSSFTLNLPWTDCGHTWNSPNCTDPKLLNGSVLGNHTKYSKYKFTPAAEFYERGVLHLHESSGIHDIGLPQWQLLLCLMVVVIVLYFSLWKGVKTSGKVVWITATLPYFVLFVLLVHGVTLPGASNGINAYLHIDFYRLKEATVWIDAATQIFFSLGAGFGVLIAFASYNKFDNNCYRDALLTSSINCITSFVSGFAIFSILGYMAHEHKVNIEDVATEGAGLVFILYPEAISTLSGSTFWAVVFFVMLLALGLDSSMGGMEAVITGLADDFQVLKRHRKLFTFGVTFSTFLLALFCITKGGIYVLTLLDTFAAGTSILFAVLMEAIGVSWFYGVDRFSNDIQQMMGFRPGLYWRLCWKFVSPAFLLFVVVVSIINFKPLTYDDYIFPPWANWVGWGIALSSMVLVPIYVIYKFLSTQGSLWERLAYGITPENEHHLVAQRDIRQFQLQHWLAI

[6] = target: Sodium-dependent dopamine transporter (Homo sapiens, UniProt Q01959)
Sequence of Sodium-dependent dopamine transporter (Q01959 whole entry): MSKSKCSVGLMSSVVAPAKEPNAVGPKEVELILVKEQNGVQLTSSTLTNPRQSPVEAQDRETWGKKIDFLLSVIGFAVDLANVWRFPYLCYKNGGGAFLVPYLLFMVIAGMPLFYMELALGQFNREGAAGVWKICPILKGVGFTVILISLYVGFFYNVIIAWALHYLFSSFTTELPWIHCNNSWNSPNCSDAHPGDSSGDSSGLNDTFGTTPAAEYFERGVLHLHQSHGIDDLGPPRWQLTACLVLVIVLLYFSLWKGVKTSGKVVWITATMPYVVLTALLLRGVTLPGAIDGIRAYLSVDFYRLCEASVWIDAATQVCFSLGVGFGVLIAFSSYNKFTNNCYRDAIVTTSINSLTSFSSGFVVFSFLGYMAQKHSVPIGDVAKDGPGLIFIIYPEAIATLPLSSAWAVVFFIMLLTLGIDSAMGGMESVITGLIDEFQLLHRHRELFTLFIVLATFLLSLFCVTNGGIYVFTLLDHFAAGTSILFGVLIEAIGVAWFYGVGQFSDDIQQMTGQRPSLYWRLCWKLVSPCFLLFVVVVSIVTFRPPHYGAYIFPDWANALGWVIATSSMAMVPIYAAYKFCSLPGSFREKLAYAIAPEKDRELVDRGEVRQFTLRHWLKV
Also: assay procedure not described here.

Compound | AC50 (Thromboxane A2 receptor) [µM] | AC50 (Adenosine receptor A3) [µM] | AC50 (Adenosine receptor A1) [µM] | AC50 [1] [µM] | AC50 (D(3) dopamine receptor) [µM] | AC50 [2] [µM] | AC50 (Histamine H2 receptor) [µM] | AC50 (Vasopressin V2 receptor) [µM] | AC50 [3] [µM] | AC50 [4] [µM] | AC50 [5] [µM] | AC50 [6] [µM]
OC1(c2ccc(Cl)cc2)c2ccccc2C2=NCCN21 (stereo not drawn) [MAZINDOL] | > 30 | 9.6 | > 30 | > 30 | > 30 | > 30 | > 10 | > 30 | > 30 | > 30 | 0.027 | –
CC(CCc1ccc(O)cc1)NCCc1ccc(O)c(O)c1 (stereo not drawn) [DOBUTAMINE] | > 30 | 22.9 | > 30 | > 30 | 0.728 | > 30 | > 10 | > 30 | > 30 | > 30 | 1.73 | 0.897
CCCCC1C(=O)N(c2ccccc2)N(c2ccccc2)C1=O [PHENYLBUTAZONE] | > 30 | > 30 | > 30 | > 30 | > 30 | > 30 | > 10 | > 30 | > 10 | > 30 | > 30 | > 30
Clc1ccc(C(Cn2ccnc2)OCc2ccsc2Cl)c(Cl)c1 (stereo not drawn) [TIOCONAZOLE] | 28.1 | 6.43 | > 30 | > 30 | 24 | 8.5 | > 30 | > 30 | > 30 | > 30 | 20.7 | 10.6
CCC1(c2ccccc2)CCC(=O)NC1=O (stereo not drawn) [GLUTETHIMIDE] | > 10 | > 10 | > 10 | > 10 | > 30 | > 10 | > 10 | > 10 | > 10 | > 10 | > 10 | > 10
Nc1ncn([C@H]2C[C@H](O)[C@@H](CO)O2)c(=O)n1 [DECITABINE] | > 30 | > 30 | > 30 | > 30 | > 30 | > 30 | > 30 | > 30 | > 30 | > 30 | > 30 | > 30
CNC1=Nc2ccc(Cl)cc2C(c2ccccc2)=[N+]([O-])C1 [CHLORDIAZEPOXIDE] | > 30 | – | > 30 | > 30 | > 30 | > 30 | > 30 | > 30 | > 10 | > 30 | > 30 | > 30
CC(C)COCC(CN(Cc1ccccc1)c1ccccc1)N1CCCC1 (stereo not drawn) [BEPRIDIL] | > 30 | – | > 30 | 23.2 | 2.6 | 22.1 | > 30 | > 30 | > 30 | > 30 | 21 | 16.2

— ChEMBL document CHEMBL5291721, “A preclinical secondary pharmacology resource illuminates target-adverse drug reaction associations of marketed drugs” (Nat Commun, 2023)
